Source: patent US11213514B2, “Alpha-1-adrenergic receptor agonist therapy” (The Regents of the University of California, priority 2016, dated 2022)

Columns and labels:
wild type mice [1] = test: Tail cuff blood pressure and heart rate in uninjured mice; format: in vivo, mouse; conditions: any dose 1-100 μg/kg/day, gavage twice daily for 5 days
Description: (§1) FIGS. 1A-1C. […] FIG. 1A. Blood pressure (BP) and heart rate (HR) were measured non-invasively in male mice for 10 consecutive days using a CODA Volume Pressure Recording tail cuff system (Kent Scientific). All daily values represent the average of at least 20 cuff inflations. Mice were acclimatized to the apparatus for the first 5 days, during which no drug was administered. […] FIG. 1B. […] Heart weight (HW, in mg) was indexed to tibia length (TL, in mm). FIG. 1C. Quantitative RT-PCR was performed using heart tissue snap frozen at the time of sacrifice. Target transcripts (ANP=atrial natriuretic peptide; MHCβ=myosin heavy chain beta; α-skAct=alpha skeletal actin) were quantified relative to two standard transcripts (Polr2a=DNA-directed RNA polymerase II, subunit A; TBP=TATA-binding protein).
Untreated mice were trained on the tail cuff apparatus daily for 5 days.
Tail cuff blood pressure (BP) and heart rate (HR) were obtained on awake mice by repeated measurements using a CODA Volume Pressure Recording tail cuff system (Kent Scientific).2 Mice were trained to the apparatus for 5 days prior to data collection. Systolic BP and HR measurements represent the average of at least 20 tail cuff inflations per mouse each afternoon.

[2] = system: atrial natriuretic peptide, beta myosin heavy chain, alpha-skeletal actin transcripts; test: qRT-PCR of molecular markers of hypertrophy in mouse hearts; format: in vivo; conditions: hearts of mice treated with dabuzalgron
Description: as §1
We used qRT-PCR to assay traditionally accepted molecular markers of hypertrophy in the hearts of mice treated with dabuzalgron. There was no change in the transcript abundance of atrial natriuretic peptide, beta myosin heavy chain, or alpha-skeletal actin. (FIG. 1C)
Total RNA was isolated from cells and tissue (QiagenRNeasy Plus mini kit #74134) and analyzed using a NanoDrop (ThermoScientific). For qRT-PCR, one […]g of RNA was reverse transcribed using High Capacity cDNA Reverse Transcription Kit (Life Technologies #4368814). Two step qRT-PCR reactions contained 2% of the cDNA product. All reactions were performed in triplicate in a Roche 480 Light Cycler. Relative quantitation of PCR products used the ΔΔCt method relative to two validated reference genes (Tbp and Polr2a). Similar efficiencies were confirmed for all primers. All probes and primers were from Roche.

wild type mice [3] = test: Indexed heart weight after 7-day gavage treatment in uninjured mice; format: in vivo, mouse; conditions: for Body weight, final / Heart weight / Heart weight/tibia length / Heart/body weight: uninjured wild type mice, 7 days
Description: as §1

[4] = system: neonatal rat ventricular myocytes; test: Myocyte death caused by oxidative stress with H2O2; format: cell-based; conditions: neonatal rat ventricular myocytes (FIG. 7)
pigs = conditions: 10 μg/kg; cited from earlier work
women = conditions: cited from earlier work
rabbits = conditions: 10 μg/kg; cited from earlier work
mouse heart = test: Pressure overload cardiomyopathy caused by transverse aortic constriction; format: in vivo; conditions: mice, TAC day 0, osmotic minipumps from 4 weeks; both doses 20 ug/kg/d and 200 ug/kg/d; day 55
Description: FIG. 8. […] Cardiac function was measured before TAC, and every 2 weeks, using echocardiography.

ERK = ERK activation in neonatal rat ventricular myocytes (pERK/ERK Western blot); format: cell-based; conditions: Rattus norvegicus, Ventricular myocyte; uninjured NRVMs, 15 minutes, propranolol pre-treatment; read-out: EC50, ERK phosphorylation
Description: FIGS. 4A-4F. […] The reaction was stopped immediately and lysates were blotted for total and phospho-ERK (pERK). FIG. 4A. Representative Western blot. FIG. 4B. […] FIG. 4C. Summary of pERK/ERK for experiments using 5 different NRVM isolations. The average pERK/ERK ratio for each experiment was derived from at least 2 individual wells and normalized to the pERK/ERK ratio for vehicle treated NRVMs. FIG. 4D and FIG. 4E. […] Heart lysates were blotted for pERK and ERK. Results were compared using one way ANOVA with Tukey post-test. FIG. 4F.
Dabuzalgron protects neonatal rat ventricular myocytes from cell death due to doxorubicin. […] (FIG. 4C).
Female Sprague-Dawley rats were from Charles River. NRVMs were isolated as previously described.7 Briefly, hearts from 1-2 day old rat pups were minced, digested serially in collagenase (Worthington)-containing solution, filtered, then pre-plated to exclude non-myocyotes. NRVMs were then plated on laminin-coated dishes in DMEM with 5% fetal bovine serum (Sigma F2442) for 24 hours. Experiments were carried out after 36-96 hours of serum starvation in the presence of insulin, transferrin, and BrdU. […]
All results are presented as mean±SEM. […] EC50 for ERK activation was calculated using sigmoidal dose-response analysis (Prism).

[5] = any dose 1-100 μg/kg/day, gavage twice daily for 7 days
[6] = human, 1.5 mg by mouth twice daily

## Cc1c(OCC2=NCCN2)ccc(Cl)c1NS(C)(=O)=O [dabuzalgron, N-[6-chloro-3-(4,5-dihydro-1H-imidazol-2-ylmethoxy)-2-methylphenyl]methanesulfonamide]
Wild type mice [1]
  HR vs vehicle: no difference
  systolic BP vs vehicle: no difference
[2]
  transcript abundance of alpha-skeletal actin: no change
  transcript abundance of atrial natriuretic peptide: no change
  transcript abundance of beta myosin heavy chain: no change
Wild type mice [3]; [5]
  change in body weight: no measurable change
  change in heart weight: no measurable change
Wild type mice [3]; 0.2 μg/kg/day gavage
  Body weight, final: 25.3 ± 0.4 g
  Heart weight: 106 ± 4 mg
  Heart weight/tibia length: 6.1 ± 0.3 mg/mm
  Heart/body weight: 0.42 ± 0.01%
Wild type mice [3]; 2 μg/kg/day gavage
  Body weight, final: 25.9 ± 0.8 g
  Heart weight: 106 ± 4 mg
  Heart weight/tibia length: 6.1 ± 0.2 mg/mm
  Heart/body weight: 0.41 ± 0.02%
Wild type mice [3]; 20 μg/kg/day gavage
  Body weight, final: 27.3 ± 1.1 g
  Heart weight: 110 ± 4 mg
  Heart weight/tibia length: 5.9 ± 0.2 mg/mm
  Heart/body weight: 0.41 ± 0.01%
Wild type mice [3]; 200 μg/kg/day gavage
  Body weight, final: 27.4 ± 1.6 g
  Heart weight: 113 ± 6 mg
  Heart weight/tibia length: 6.1 ± 0.3 mg/mm
  Heart/body weight: 0.41 ± 0.01%
[4]
  myocyte death caused by oxidative stress with H2O2: prevents
pigs
  effect on BP: no effect
women; [6]
  BP: did not alter
  HR: did not alter
women; interim analysis of the Phase 2 trials
  difference in urinary incontinence between dabuzalgron and placebo groups: no clinically meaningful difference
women; subjects who received dabuzalgron in any of these trials
  changes in BP: no significant changes
women; total of 1,223 women, Phase 1, two Phase 2 trials and open-label study
  tolerability: well tolerated
rabbits
  effect on BP: no effect
Mouse heart
  cardiac function (fractional shortening) compared with vehicle: significant improvement
ERK
  EC50: 0.48 µM
